US20250042879A1, “HETEROCYCLIC SUBSTITUTED 1,3,4-THIADIAZOLE AND PYRIDAZINE COMPOUNDS AND METHODS OF USING THE SAME” (Rgenta Therapeutics, Inc., priority 2021, published 2025)
Where a name gives a salt, the structure may show the parent alone.

Test system: HTT
Experiment: Mini-gene reporter assay-HTT (firefly luciferase, exon inclusion)
Format: cell-based
Conditions: HTT Minigene, 5 μM; read-out: % Efficacy at 5 μM
From the text: Mini-gene reporter constructs for each target site were constructed by first PCR amplifying the region-of-interest including the sequence of the alternatively skipped, sequences of the immediate upstream and downstream introns, and sequences of the immediate upstream and downstream exons. Then the 3′end of the amplified sequence was ligated to a firefly luciferase reporter gene and cloned into the pcDNA3.1 vector backbone. The final reporter construct was transiently transfected into HEK293 cells using Lipofectamine 3000 transfection reagents. Compounds that can induce the inclusion of the skipped exon in the reporter construct would increase the reporter firefly luciferase activity.
Test compounds were diluted in duplicates and dispensed into an assay plate. Transient mini-gene reporter cell line stock was resuspended and dispensed into the assay plate. Assay plates were then centrifuged and incubated. A luciferase reagent (e.g. ONE-Glo firefly luciferase reagent from Promega®) was added to the assay plate and the luminescence (RLU) signals recorded. EC50 values were determined by curve fitting in Levenberg-Marquardt algorithm.

| SMILES | Emax at 5 µM [%] |
| --- | --- |
| Cc1cn2cc(-c3ccc(-c4ccc(C5CN(C6CCSC6)C5)nn4)c(O)c3)cc(F)c2n1 (stereo not shown) [Compound 70] | 25 to 75 |
| Cc1cn2cc(-c3ccc(-c4ccc(C5CN(Cc6cnn(C)c6)C5)nn4)c(O)c3)cc(F)c2n1 [Compound 71] | > 750 |
| Cc1cn2cc(-c3ccc(-c4ccc(C5CN(Cc6cc[nH]n6)C5)nn4)c(O)c3)cc(F)c2n1 [Compound 72] | > 750 |
| Cc1cn2cc(-c3ccc(-c4ccc(C5CN(Cc6c[nH]nc6C)C5)nn4)c(O)c3)cc(F)c2n1 [Compound 73] | > 750 |
| Cc1cn2cc(-c3ccc(-c4ccc(C5CN(Cc6c(C)n[nH]c6C)C5)nn4)c(O)c3)cc(F)c2n1 [Compound 74] | 25 to 75 |
| Cc1cn2cc(-c3ccc(-c4ccc(C5CN(C6CCN(C)CC6)C5)nn4)c(O)c3)cc(F)c2n1 [Compound 75] | 25 to 75 |
| COCCC(C)N1CC(c2ccc(-c3ccc(-c4cc(F)c5nc(C)cn5c4)cc3O)nn2)C1 (stereo not shown) [Compound 76] | > 750 |
| CCn1cc(CN2CC(c3ccc(-c4ccc(-c5cc(F)c6nc(C)cn6c5)cc4O)nn3)C2)cn1 [Compound 77] | > 750 |
| Cc1cn2cc(-c3ccc(-c4ccc(C5CN(Cc6ccn(C)n6)C5)nn4)c(O)c3)cc(F)c2n1 [Compound 80] | 25 to 75 |
| Cc1cn2cc(-c3ccc(-c4ccc(C5CN(Cc6cn(C)nc6C)C5)nn4)c(O)c3)cc(F)c2n1 [Compound 81] | 25 to 75 |
| Cc1cn2cc(-c3ccc(-c4ccc(C5CN(Cc6cncnc6)C5)nn4)c(O)c3)cc(F)c2n1 [Compound 82] | 25 to 75 |

Same assay, conditions: Homo sapiens; HTT mini-gene firefly luciferase reporter transiently transfected into HEK293 cells

| EC50 [nM] | SMILES |
| --- | --- |
| 500 to 1000 | CCN1CC(c2ccc(-c3ccc(-c4ccc5nccn5n4)cc3O)nn2)C1 [Compound 47, 2-[6-(1-ethylazetidin-3-yl)pyridazin-3-yl]-5-{imidazo[1,2-b]pyridazin-6-yl}phenol] |
| 50 to 500 | CCN1CC(c2ccc(-c3ccc(-c4cc(OC)c5nn(C)cc5c4)cc3O)nn2)C1 [Compound 48, 2-[6-(1-ethylazetidin-3-yl)pyridazin-3-yl]-5-(7-methoxy-2-methyl-2H-indazol-5-yl)phenol] |
| 500 to 1000 | COc1cc(-c2ccc(-c3ccc(C4CN(C5CCOCC5)C4)nn3)c(O)c2)cc2cn(C)nc12 [Compound 49, 5-(7-methoxy-2-methyl-2H-indazol-5-yl)-2-{6-[1-(oxan-4-yl)azetidin-3-yl]pyridazin-3-yl}phenol] |
| 50 to 500 | CCN1CC(c2ccc(-c3ccc(-c4ccc5nn(C)cc5n4)cc3O)nn2)C1 [Compound 50, 2-[6-(1-ethylazetidin-3-yl)pyridazin-3-yl]-5-{2-methyl-2H-pyrazolo[4,3-b]pyridin-5-yl}phenol] |
| 500 to 1000 | Cn1cc2nc(-c3ccc(-c4ccc(C5CN(C6CCOCC6)C5)nn4)c(O)c3)ccc2n1 [Compound 51, 5-{2-methyl-2H-pyrazolo[4,3-b]pyridin-5-yl}-2-{6-[1-(oxan-4-yl)azetidin-3-yl]pyridazin-3-yl}phenol] |
| 50 to 500 | CCN1CC(c2ccc(-c3ccc(-c4cc5cn(C)nc5c(OC)n4)cc3O)nn2)C1 [Compound 52, 2-[6-(1-ethylazetidin-3-yl)pyridazin-3-yl]-5-{7-methoxy-2-methyl-2H-pyrazolo[3,4-c]pyridin-5-yl}phenol] |
| 500 to 1000 | CCN1CC(c2ccc(-c3ccc(-c4cc5cn(C)nc5c(O)n4)cc3O)nn2)C1 [Compound 53, 5-{4-[6-(1-ethylazetidin-3-yl)pyridazin-3-yl]-3-hydroxyphenyl}-2-methyl-2H-pyrazolo[3,4-c]pyridin-7-ol] |
| ≥ 1000 | CCOc1cc(-c2ccc(-c3ccc(C4CN(C5CCOCC5)C4)nn3)c(O)c2)cc2cn(C)nc12 [Compound 54, 5-(7-ethoxy-2-methyl-2H-indazol-5-yl)-2-{6-[1-(oxan-4-yl)azetidin-3-yl]pyridazin-3-yl}phenol] |
| ≥ 1000 | CCOc1cc(-c2ccc(-c3ccc(C4CN(C)C4)nn3)c(O)c2)cc2cn(C)nc12 [Compound 55, 5-(7-ethoxy-2-methyl-2H-indazol-5-yl)-2-[6-(1-methylazetidin-3-yl)pyridazin-3-yl]phenol] |
| 500 to 1000 | CCOc1cc(-c2ccc(-c3ccc(C4CN(CC)C4)nn3)c(O)c2)cc2cn(C)nc12 [Compound 56, 5-(7-ethoxy-2-methyl-2H-indazol-5-yl)-2-[6-(1-ethylazetidin-3-yl)pyridazin-3-yl]phenol] |
| 50 to 500 | COc1nc(-c2ccc(-c3ccc(C4CN(C(C)C)C4)nn3)c(O)c2)cc2cn(C)nc12 [Compound 57, 5-{7-methoxy-2-methyl-2H-pyrazolo[3,4-c]pyridin-5-yl}-2-{6-[1-(propan-2-yl)azetidin-3-yl]pyridazin-3-yl}phenol] |
| 50 to 500 | COc1nc(-c2ccc(-c3ccc(C4CN(C5CCOCC5)C4)nn3)c(O)c2)cc2cn(C)nc12 [Compound 58, 5-{7-methoxy-2-methyl-2H-pyrazolo[3,4-c]pyridin-5-yl}-2-{6-[1-(oxan-4-yl)azetidin-3-yl]pyridazin-3-yl}phenol] |
| ≥ 1000 | CCc1cc(-c2ccc(-c3ccc(C4CN(C5CCOCC5)C4)nn3)c(O)c2)nc2cn(C)nc12 [Compound 59, 5-{7-ethyl-2-methyl-2H-pyrazolo[4,3-b]pyridin-5-yl}-2-{6-[1-(oxan-4-yl)azetidin-3-yl]pyridazin-3-yl}phenol] |
| ≥ 1000 | CCc1cc(-c2ccc(-c3ccc(C4CN(CC)C4)nn3)c(O)c2)nc2cn(C)nc12 [Compound 60, 5-{7-ethyl-2-methyl-2H-pyrazolo[4,3-b]pyridin-5-yl}-2-[6-(1-ethylazetidin-3-yl)pyridazin-3-yl]phenol] |
| ≥ 1000 | Cc1cc(-c2ccc(-c3ccc(C4CN(C5CCOCC5)C4)nn3)c(O)c2)nc2cn(C)nc12 [Compound 61, 5-{2,7-dimethyl-2H-pyrazolo[4,3-b]pyridin-5-yl}-2-{6-[1-(oxan-4-yl)azetidin-3-yl]pyridazin-3-yl}phenol] |
| 500 to 1000 | CCN1CC(c2ccc(-c3ccc(-c4cc(C)c5nn(C)cc5n4)cc3O)nn2)C1 [Compound 62, 5-{2,7-dimethyl-2H-pyrazolo[4,3-b]pyridin-5-yl}-2-[6-(1-ethylazetidin-3-yl)pyridazin-3-yl]phenol] |
| 500 to 1000 | Cc1cn2nc(-c3ccc(-c4ccc(C5CN(C6CCOCC6)C5)nn4)c(O)c3)ccc2n1 [Compound 63, 5-(2-methylimidazo[1,2-b]pyridazin-6-yl)-2-(6-(1-(tetrahydro-2H-pyran-4-yl)azetidin-3-yl)pyridazin-3-yl)phenol hydrochloride] |
| 500 to 1000 | Cc1cn2nc(-c3ccc(-c4ccc(C5CN(C6CCOCC6)C5)nn4)c(O)c3)cc(C)c2n1 [Compound 64, 5-(2,8-dimethylimidazo[1,2-b]pyridazin-6-yl)-2-(6-(1-(tetrahydro-2H-pyran-4-yl)azetidin-3-yl)pyridazin-3-yl)phenol hydrochloride] |
| ≥ 1000 | COc1cc(-c2ccc(-c3ccc(C4CN(C5CCOCC5)C4)nn3)c(O)c2)nc2cn(C)nc12 [Compound 65, 5-(7-methoxy-2-methyl-2H-pyrazolo[4,3-b]pyridin-5-yl)-2-(6-(1-(tetrahydro-2H-pyran-4-yl)azetidin-3-yl)pyridazin-3-yl)phenol hydrochloride] |
| ≥ 1000 | CCN1CC(c2ccc(-c3ccc(-c4cc(OC)c5nn(C)cc5n4)cc3O)nn2)C1 [Compound 66, 2-(6-(1-ethylazetidin-3-yl)pyridazin-3-yl)-5-(7-methoxy-2-methyl-2H-pyrazolo[4,3-b]pyridin-5-yl)phenol hydrochloride] |
